Test results: paper PMC3504033, “Inhibition of Angiotensin-Converting Enzyme Activity by Flavonoids: Structure-Activity Relationship Studies” (PLoS ONE, 2012)
Read-outs that look alike come from different tables or passages of the source.

Tests used:
[1] = molecular target: T1, Angiotensin-I Converting Enzyme from rabbit lung (Oryctolagus cuniculus, UniProt P12822); assay: ACE-inhibitory (ACEI) activity, fluorimetric assay with o-Abz-Gly-p-Phe(NO2)-Pro substrate; type: biochemical; settings: for inhibition at 100 µM / inhibition at 500 µM: 0.5 h; for inhibition at 100 µM: mean of three experiments (Figure 2A); for change of ACEI activity on structural change, vs. luteolin: compared with luteolin (Figure 3); for relative IC50 ratio: IC50 relative to luteolin (1); for IC50: technical and biological triplicate, read-out: IC50 value (concentration that inhibits ACE activity by 50%)
T1 construct: Angiotensin-I Converting Enzyme from rabbit lung; purchased Sigma (Barcelona, Spain); host or cells: rabbit lung tissue
T1 sequence (P12822 34-1310): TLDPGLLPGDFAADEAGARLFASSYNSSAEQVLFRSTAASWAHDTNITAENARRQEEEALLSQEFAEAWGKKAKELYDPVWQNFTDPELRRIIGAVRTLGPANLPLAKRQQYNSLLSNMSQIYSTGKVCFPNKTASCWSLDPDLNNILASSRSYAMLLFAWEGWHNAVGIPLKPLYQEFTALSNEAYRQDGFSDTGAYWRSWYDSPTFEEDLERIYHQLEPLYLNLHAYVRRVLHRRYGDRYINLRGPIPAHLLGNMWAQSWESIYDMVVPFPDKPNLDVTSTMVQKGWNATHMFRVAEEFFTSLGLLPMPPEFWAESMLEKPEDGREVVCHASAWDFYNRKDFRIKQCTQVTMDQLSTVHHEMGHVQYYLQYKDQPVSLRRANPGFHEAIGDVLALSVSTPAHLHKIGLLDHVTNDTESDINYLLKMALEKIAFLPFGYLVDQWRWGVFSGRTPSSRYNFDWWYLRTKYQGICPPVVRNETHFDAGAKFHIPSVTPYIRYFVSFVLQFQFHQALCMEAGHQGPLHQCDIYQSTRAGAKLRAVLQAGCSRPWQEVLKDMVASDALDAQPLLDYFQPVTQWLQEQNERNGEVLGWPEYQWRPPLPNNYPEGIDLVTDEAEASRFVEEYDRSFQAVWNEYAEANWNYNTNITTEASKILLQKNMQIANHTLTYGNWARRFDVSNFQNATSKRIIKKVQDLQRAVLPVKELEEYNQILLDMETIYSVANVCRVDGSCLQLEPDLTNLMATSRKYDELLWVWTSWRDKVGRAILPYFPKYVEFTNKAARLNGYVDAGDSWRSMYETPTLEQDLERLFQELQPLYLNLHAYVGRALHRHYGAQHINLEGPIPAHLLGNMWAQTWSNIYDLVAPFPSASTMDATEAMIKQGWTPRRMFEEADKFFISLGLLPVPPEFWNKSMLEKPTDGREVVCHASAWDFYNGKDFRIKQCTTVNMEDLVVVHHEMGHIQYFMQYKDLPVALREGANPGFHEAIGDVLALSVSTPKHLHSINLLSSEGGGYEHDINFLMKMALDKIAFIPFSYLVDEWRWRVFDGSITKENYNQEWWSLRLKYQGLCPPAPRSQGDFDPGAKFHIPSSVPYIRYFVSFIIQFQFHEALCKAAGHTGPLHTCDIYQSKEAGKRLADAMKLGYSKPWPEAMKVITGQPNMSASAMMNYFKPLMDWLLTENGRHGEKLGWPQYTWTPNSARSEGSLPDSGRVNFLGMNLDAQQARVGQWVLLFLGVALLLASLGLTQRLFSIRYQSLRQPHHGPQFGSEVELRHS
From the text: o-aminobenzoylglycyl-p-nitro-phenylalanylproline (o-ABz-Gly-Phe(NO2)-Pro) was purchased from Bachem Feinchemikalien (Bubendorf, Switzerland). Five units of Angiotensin-I Converting Enzyme from rabbit lung and ZnCl2 were obtained from Sigma (Barcelona, Spain). […] Flavonoids were solubilized in dimethyl sulfoxide (DMSO) and prepared daily. In all experiments, the final concentration of DMSO was 0.4%. Distilled water was obtained from a Millipore Milli-Q® system.
Flavonoid solutions (100 and 500 µM) were prepared in DMSO (0.4%) daily. The 0.1 U/mL ACE solution stock was prepared in glycerol: water (1∶1), aliquoted and stored at −20°C. The 0.1 µM ZnCl2 stock solution was prepared and stored at 4°C. The ACE working solution was prepared daily by diluting it in 150 mM Tris buffer (pH 8.3) containing 0.1 µM ZnCl2.
ACEI activity was measured by a fluorimetric assay following the method of Sentandreu and Toldrá [43] with some modifications. […] Fluorescence was measured after 30 min in 96-well microplates (Thermo Scientific, Rochester, NY) using a multiscan microplate fluorimeter (Biotek. FL×800). Microplates (Thermo Scientific, Rochester, NY) were used in this assay. The excitation and emission wavelengths were 360 and 430 nm, respectively. The activity of each sample was tested in technical and biological triplicate.
The ACEI activity was calculated using the following formula: [drawing 1] where A is the fluorescence without the flavonoid solution, B is the fluorescence without ACE and C is the fluorescence in the presence of both ACE and the flavonoid solution. A flavonoid solution of 500 µM was selected on the basis of previous studies, [35], and the concentration of 100 µM was chosen because it is within the physiological concentration range. […] The IC50 of each selected flavonoid was tested in technical and biological triplicate. The results from three experiments are expressed as the mean ± SD and were performed in different platelet samples.

ACE N domain = tested on: ACE N domain; design: method as in PMID 11303049; settings: ACE inhibition with N-domain-specific inhibitor; cited from earlier work
[2] = 100 µM flavonoid, purified lung ACE, 37°C, 30 min, read-out: percentage of ACE inhibition
[3] = 500 µM flavonoid, purified lung ACE, 37°C, 30 min, mean of three experiments (Figure 2B), read-out: percentage of ACE inhibition
[4] = read-out: percentage of ACE inhibition, 100 µM flavonoid, purified lung ACE, 37°C, 30 min

Q: What does the source list for `Oc1cc(O)c2c(c1)O[C@H](c1ccc(O)c(O)c1)[C@@H](O)C2` [Catechin]?
A: inhibition at 100 µM [1, 2]: 7.5%; inhibition at 500 µM [1, 3]: 29%

Q: With `COc1ccc([C@@H]2CC(=O)c3c(O)cc(O)cc3O2)cc1O` [Hesperetin] as the compound, how does the inhibition at 100 µM [1, 2] read?
A: Its inhibition at 100 µM is 0.7%.

Q: What about the inhibition at 500 µM [1, 3] of the same compound?
A: Its inhibition at 500 µM is over 30%.

Q: For `O=c1c(O)c(-c2ccc(O)c(O)c2)oc2cc(O)cc(O)c12` [Quercetin], which “change of ACEI activity on structural change, vs. luteolin” value (from here on “change of ACEI activity … vs. luteolin”) ([1]; 100 µM) is on record?
A: Its value is −44%.

Q: What about the inhibition at 100 µM [1, 4] of the same compound?
A: Its inhibition at 100 µM is over 30%.

Q: For `C[C@@H]1O[C@@H](OC[C@H]2O[C@@H](Oc3c(-c4ccc(O)c(O)c4)oc4cc(O)cc(O)c4c3=O)[C@H](O)[C@@H](O)[C@@H]2O)[C@H](O)[C@H](O)[C@H]1O` [Rutin, quercetin 3-O-glycoside], which “change of ACEI activity … vs. luteolin” value ([1]; 100 µM) is on record?
A: Its value is -36%.

Q: What about the inhibition at 100 µM [1, 2] of the same compound?
A: The inhibition at 100 µM was over 30%.

Q: And the “relative IC50 ratio” value [1]?
A: The value was 2.78.

Q: What about the IC50 [1] of the same compound?
A: The IC50 was 64 µM.

Q: With `O=c1cc(-c2ccc(O)cc2)oc2cc(O)cc(O)c12` [Apigenin] as the compound, how does the “change of ACEI activity … vs. luteolin” value ([1]; 100 µM) read?
A: Its value is −57%.

Q: What about the “reduction of ACEI activity relative to luteolin” value ([1]; 100 µM) of the same compound?
A: The value was 57%.

Q: What about the inhibition at 100 µM [1, 2] of the same compound?
A: The inhibition at 100 µM was 24.7%.

Q: For `O=c1c(O)c(-c2ccc(O)cc2)oc2cc(O)cc(O)c12` [Kaempferol], which inhibition at 100 µM [1, 2] is on record?
A: The inhibition at 100 µM was over 30%.

Q: What about the “relative IC50 ratio” value [1] of the same compound?
A: Its value is 7.74.

Q: What about the “increase in the IC50 relative to quercetin” value ([1]; relative to quercetin) of the same compound?
A: The value was 4 fold.

Q: And the IC50 [1]?
A: Its IC50 is 178 µM.

Q: What does the source list for `COc1ccc(-c2cc(=O)c3c(O)cc(O)cc3o2)cc1O` [Diosmetin]?
A: change of ACEI activity on structural change, vs. luteolin ([1]; 100 µM): −78%; reduction of ACEI activity relative to luteolin ([1]; 100 µM): 78%; inhibition at 100 µM [1, 2]: 12.5%

Q: For `O=C1C[C@@H](c2ccc(O)cc2)Oc2cc(O)cc(O)c21.[K]` [Naringenin K], which “percentage of ACE inhibition” value ([1]; 500 µM flavonoid, purified lung ACE, 37°C, 30 min, mean of three experiments (Figure 2B), listed as narigenin K) is on record?
A: Its value is “higher than 30%”.

Q: For `O=c1cc(-c2ccc(O)c(O)c2)oc2cc(O)cc(O)c12` [Luteolin], which “relative IC50 ratio” value [1] is on record?
A: The value was 1.

Q: And the IC50 [1]?
A: The IC50 was 23 µM.

Q: Which inhibition at 100 µM [1, 2] does the source give for `COc1ccc(-c2cc(=O)c3c(O)cc(O[C@@H]4O[C@H](CO[C@@H]5O[C@@H](C)[C@H](O)[C@@H](O)[C@H]5O)[C@@H](O)[C@H](O)[C@H]4O)cc3o2)cc1O` [Diosmin] here?
A: The inhibition at 100 µM was 9.3%.

Q: What about the inhibition at 500 µM [1, 3] of the same compound?
A: Its inhibition at 500 µM is over 30%.

Q: With `C[C@@H]1O[C@@H](O[C@H]2[C@H](Oc3cc(O)c4c(=O)cc(-c5ccc(O)cc5)oc4c3)O[C@H](CO)[C@@H](O)[C@@H]2O)[C@H](O)[C@H](O)[C@H]1O` [Rhoifolin, apigenin 7-O-glycoside] as the compound, how does the inhibition at 100 µM [1, 2] read?
A: The inhibition at 100 µM was over 30%.

Q: What about the “relative IC50 ratio” value [1] of the same compound?
A: Its value is 7.96.

Q: And the IC50 [1]?
A: Its IC50 is 183 µM.

Q: Which “change of ACEI activity … vs. luteolin” value ([1]; 100 µM) does the source give for `Oc1cc(O)c2c(c1)O[C@H](c1ccc(O)c(O)c1)[C@H](O)C2` [Epicatechin] here?
A: Its value is −74%.

Q: What about the inhibition at 100 µM [1, 2] of the same compound?
A: Its inhibition at 100 µM is 15%.

Q: And the inhibition at 500 µM [1, 3]?
A: The inhibition at 500 µM was over 30%.

Q: Which results are given for `O=c1cc(-c2ccc(O)cc2)oc2cc(O)cc(O)c12.[K]` [Apigenin K]?
A: relative IC50 ratio [1]: 8.52; IC50 [1]: 196 µM

Q: With `O=c1c(-c2ccc(O)cc2)coc2cc(O)cc(O)c12` [Genistein] as the compound, how does the inhibition at 100 µM [1, 2] read?
A: The inhibition at 100 µM was 25.7%.

Q: And the inhibition at 500 µM [1, 3]?
A: The inhibition at 500 µM was over 30%.

Q: Which inhibition at 100 µM [1, 4] does the source give for `COc1ccc(C2CC(=O)c3c(O)cc(OC4OC(COC5OC(C)C(O)C(O)C5O)C(O)C(O)C4O)cc3O2)cc1O` (centres unmarked) [Hesperidin] here?
A: The inhibition at 100 µM was 0%.

Q: What about the inhibition at 500 µM ([1]; read-out: percentage of ACE inhibition, 500 µM flavonoid, purified lung ACE, 37°C, 30 min, mean of three experiments (Figure 2B)) of the same compound?
A: The inhibition at 500 µM was 17%.

Q: For `CC(=O)N[C@@H](CC(=O)O)C(=O)N[C@@H](Cc1ccccc1)P(=O)(O)C[C@@H](C)C(=O)N[C@@H](C)C(N)=O` [RXP407], which “effect on blood pressure regulation” value (ACE N domain) is on record?
A: The value was “no effect on blood pressure regulation”.

Q: Which “change of ACEI activity on structural change, vs. apigenin” value ([1]; 100 µM, compared with apigenin (Figure 3)) does the source give for `O=C1C[C@@H](c2ccc(O)cc2)Oc2cc(O)cc(O)c21` [Naringenin] here?
A: Its value is −91%.

Q: And the “reduction of ACEI activity vs. apigenin” value ([1]; 100 µM, vs. apigenin)?
A: Its value is 91%.

Q: What about the inhibition at 100 µM [1, 2] of the same compound?
A: The inhibition at 100 µM was 2.3%.

Q: And the inhibition at 500 µM [1, 3]?
A: Its inhibition at 500 µM is 22.3%.

Q: For `C[C@@H]1O[C@@H](O[C@H]2[C@H](Oc3cc(O)c4c(c3)O[C@H](c3ccc(O)cc3)CC4=O)O[C@H](CO)[C@@H](O)[C@@H]2O)[C@H](O)[C@H](O)[C@H]1O` [Naringin], which inhibition at 100 µM [1, 2] is on record?
A: The inhibition at 100 µM was 4.5%.

Q: What about the inhibition at 500 µM [1, 3] of the same compound?
A: The inhibition at 500 µM was 23.3%.
